Test results reported in paper PMC7438494 (Communications Biology, 2020).

Target: luciferase (Photinus pyralis, UniProt P08659)
Type: biochemical

luciferase, sequence (P08659 whole entry): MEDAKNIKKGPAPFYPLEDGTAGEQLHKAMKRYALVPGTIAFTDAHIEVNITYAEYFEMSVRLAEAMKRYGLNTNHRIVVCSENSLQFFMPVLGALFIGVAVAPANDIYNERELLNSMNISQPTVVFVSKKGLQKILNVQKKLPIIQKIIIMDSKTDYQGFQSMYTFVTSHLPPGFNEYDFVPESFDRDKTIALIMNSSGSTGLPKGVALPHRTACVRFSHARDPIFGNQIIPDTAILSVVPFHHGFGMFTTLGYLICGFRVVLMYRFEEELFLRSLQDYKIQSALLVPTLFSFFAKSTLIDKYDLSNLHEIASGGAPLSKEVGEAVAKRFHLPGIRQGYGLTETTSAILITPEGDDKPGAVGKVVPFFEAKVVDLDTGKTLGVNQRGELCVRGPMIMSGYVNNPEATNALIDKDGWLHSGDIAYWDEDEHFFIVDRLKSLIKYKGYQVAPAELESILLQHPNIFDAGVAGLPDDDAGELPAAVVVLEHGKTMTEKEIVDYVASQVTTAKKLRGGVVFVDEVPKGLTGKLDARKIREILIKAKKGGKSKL

Structure (SMILES): COc1nc2ccc(Br)cc2cc1[C@@H](c1ccccc1)[C@@](O)(CCN(C)C)c1cccc2ccccc12 [BDQ, Bedaquiline]
- effect on the activity of luciferase: did not affect
